According to patent US6911550B2, “Derivatives of seleno-amino acids with improved bioavailability and method for their preparation” (priority 2003, dated 2005):
Counter-ions that a name gives are not always drawn.

How the values were obtained:
[1] = Stability of a zinc L-selenomethionine solution on storage (HPLC); format: physicochemical
Procedure: FTIR Identification: A 100 μL of the extract was added to 100 mg of FTIR grade potassium bromide powder and mixed well. The mixer was dried in an oven at 75° C. A pellet was formed and the FTIR spectrum of the sample was recorded. […] (w, weak; m, medium; s, strong; vs, very strong). This spectrum is different than that of L-selenomethionine. Of interest is the absence of the weak to medium band at around 2118 cm^−1 characteristic of free amino acids. HPLC Determination: The concentration of zinc L-selenomethionine in the water extract was determined by HPLC. A Shimadzu instrument composed of SCL-10A-VP Controller, Dual LC-10AD-VP Pumps, SIL-10 Ai Auto sampler, and SCD-10AV-VP UV/Visible Detector set at 210 nm. A Discovery Cyano 5μ column (25 cm×4.6 mm) was used at 25° C. The mobile phase was a 0.1% Glacial acetic Acid at 1.00 mL/min. A 50 μL of the standard or sample solution was injected by the auto sampler. A set of 5 standards were prepared to contain 0.1567, 0.3134, 0.4701, 0.6268, and 0.7835 mg/ml of Zinc L-Selenomethionine. A 100 μL of the sample extract was diluted with 900 μL water and used as sample solution. Standards and sample solutions are filtered through a 2μ filter before injection. Standards and sample contained only a single component with a retention time of 3.975 min. Linear regression was used to construct a correlation graph of area under the peak vs. concentration. The concentration of zinc L-selenomethionine in the sample solution was calculated from the correlation graph and found to be 0.3898 mg/mL corresponding to 18.79% Zinc L-Selenomethionine or 5.67% Selenium in the original Premix.
About 2.0 g of a Zinc L-Selenomethionine Premix 5% Se was accurately weighed and transferred into a 100-ml volumetric flask. Water was added to volume. The flask was stoppered and its contents were mixed vigorously. The mixture was allowed to settle and a sample of the supernatant was removed carefully and filtered through a […]. The concentration of zinc L-selenomethionine in the filtrate was determined by HPLC as described in EXAMPLE 2. Analysis was conducted immediately after the solution was prepared and repeated at 30 days and 90 days after storing at an ambient temperature averaging 18° C. and 50% relative humidity.

[2] = Solubility in water; format: physicochemical
Procedure: L-Selenomethionine (97.8 mg, 0.5 mmole) was added to water (45 ml) in a 250-ml round bottom flask placed in an ice-bath. The mixture was vigorously stirred by using a magnetic stirrer and a Teflon coated stir-bar. […] Zinc chloride (68.20 mg, 0.5 mmole) was added with continued stirring. A clear solution was immediately formed. The solution was concentrated to dryness at temperature 40° C. under reduced pressure. A hygroscopic colorless solid was formed.

[3] = Plasma and tissue selenium concentrations in selenium-depleted lambs fed selenium sources; format: in vivo; conditions: for Relative bioavailability based on tissue selenium concentration, Heart / Relative bioavailability based on tissue selenium concentration, Kidney / Relative bioavailability based on tissue selenium concentration, Liver / Relative bioavailability based on tissue selenium concentration, Muscle: sheep, po, 56 days
Text: (§1) […] lambs with average weight of 18.5 kg were used. […] Lambs were weaned at approximately two months of age and placed in plastic pens with plastic feeders and stainless steel waterers. For 56 days lambs were fed feedstuff low in selenium. Jugular blood samples were obtained from all lambs on days 0, 28 and 56. At the end of the 56-day depletion period, lambs were stratified by weight and randomly assigned to […]. The treatments consisted of: 1) Control, 2) sodium selenite, 3) L-selenomethionine and 4) zinc L-selenomethionine. The selenium sources were added to provide 0.05 ppm of supplemental selenium for 28 days and then the amount of selenium from each source was increased to 0.1 ppm for additional 28 days. Blood samples were collected via jugular puncture on days 0, 14, 28 and 56. Whole blood and plasma glutathione peroxidase activity in samples obtained on days 0, 14, 28, and 56. Plasma selenium was measured in samples obtained on days 0, 28, and 56. Six lambs from each treatment were slaughtered at the end of the study and samples of liver, kidney, muscle, and heart were obtained for the determination of selenium and glutathione peroxidase activities.

[4] = tested on: glutathione peroxidase; experiment: Glutathione peroxidase activity in selenium-depleted lambs fed selenium sources; format: in vivo; conditions: for Whole blood glutathione peroxidase activity, difference between selenium sources / Plasma glutathione peroxidase activity compared with sodium selenite / Glutathione peroxidase activities in kidney, liver, and muscle compared to sodium selenite: lambs; for Whole blood glutathione peroxidase activity, difference between selenium sources: day 14; for Plasma glutathione peroxidase activity compared with sodium selenite: day 28, 0.05 ppm Se; for Glutathione peroxidase activities in kidney, liver, and muscle compared to sodium selenite: supplemented for 56 days; for Relative bioavailability based on glutathione peroxidase activity, Plasma, day 14 / Relative bioavailability based on glutathione peroxidase activity, Plasma, day 28 / Relative bioavailability based on glutathione peroxidase activity, Heart / Relative bioavailability based on glutathione peroxidase activity, Kidney / Relative bioavailability based on glutathione peroxidase activity, Liver / Relative bioavailability based on glutathione peroxidase activity, Muscle: sheep, po; for Relative bioavailability based on glutathione peroxidase activity, Plasma, day 14: 14 days; for Relative bioavailability based on glutathione peroxidase activity, Plasma, day 28: 28 days; for Relative bioavailability based on glutathione peroxidase activity, Heart / Relative bioavailability based on glutathione peroxidase activity, Kidney / Relative bioavailability based on glutathione peroxidase activity, Liver / Relative bioavailability based on glutathione peroxidase activity, Muscle: 56 days
Text: as §1

[5] = Performance of grow-finish pigs fed selenium sources; format: in vivo; conditions: for Feed Intake / Feed/Gain / Gain: 0.3 ppm supplemental selenium
Text: (§2) Sixteen pigs with an average weight of 22.9 kg were stratified by weight within sex and randomly assigned to treatments consisting of 0.3 ppm supplemental selenium from either sodium selenite or zinc L-selenomethionine hydrochloride. Pigs were housed in pens and each treatment consisted of four replicate pens each housed one gilt and one […]. Pigs were fed diets that were formulated to meet NRC requirements. Pigs were fed the growing diet for 56 days and then the finishing diet for 33 days. The average pig weight at the end of the growing and finishing phases was 69.6 and 101.2 kg, respectively. Body weights of each pig were determined initially and at the end of the growing and finishing phases. At the end of the study, pigs were slaughtered and samples of liver, muscle, heart and kidney were collected for selenium determination.

[6] = Tissue selenium concentrations in grow-finish pigs; format: in vivo
Text: as §2

[7] = tested on: glutathione peroxidase; experiment: Plasma glutathione peroxidase activity in broilers; format: in vivo; conditions: day 49
Procedure: (§3) One day old male and female birds were used in the study. Male and females were housed separately and randomly assigned to 6 blocks of 8 pens each (4 females and 4 males). The pens contained 50 females or 45 males. Two extra birds were added to each pen at the start of the experiment to allow for mortality and culls. On day 7 the number of birds in each per were adjusted to 50 females and 45 males. Three treatments were assigned to pens using a complete randomized block design. The treatments included: 1) negative control (no additional selenium), 2) sodium selenite, and 3) zinc L-selenomethionine. Birds were housed in concrete floor pens of an environmentally controlled facility. Environmental conditions were similar for all birds in all experimental groups. […] All feed added and removed from pens from day 0 to the end of the study was weighed and recorded. […] The feed intake for each pen was determined by subtracting the amount of feed remaining in the feeder at the end of the study period from the amount of feed weighed into the pen. Average bird weight was calculated on a pen basis. […] Blood was collected in heparinized tubes, plasma was separated and stored at −20° C. until analyzed for selenium and glutathione peroxidase. […] A 100 g sample of the right breast was collected from each bird and stored at −20° C. until analyzed for selenium.

[8] = Rumen degradation after ingestion; conditions: in vivo
[9] = Plasma selenium concentration in broilers; conditions: both, chicken (broilers), in vivo, 49 days
Procedure: as §3

With `C[Se]C[C@H](N)C(=O)O.Cl.[Zn]` [zinc Se-methyl-L-selenocysteine complex, Zinc L-Se-Methylselenocysteine Hydrochloride] as the compound, how does the “Stability of the water solution on storage” value [1] read?
The value was “stable solution”.

What about the Solubility in water [2] of the same compound?
The Solubility in water was “readily soluble in water”.

Which results are given for `C[Se]CC[C@H](N)C(=O)O` [L-Selenomethionine, reference compound]?
Heart and liver selenium concentrations compared with sodium selenite ([3]; in vivo): higher heart and liver selenium concentrations; Plasma selenium compared with sodium selenite ([3]; in vivo): higher plasma selenium; Relative bioavailability based on tissue selenium concentration, Heart ([3]; in vivo): 139; Relative bioavailability based on tissue selenium concentration, Kidney ([3]; in vivo): 59; Relative bioavailability based on tissue selenium concentration, Liver ([3]; in vivo): 206; Relative bioavailability based on tissue selenium concentration, Muscle ([3]; in vivo): 133; Whole blood glutathione peroxidase activity, difference between selenium sources [4]: no difference; Plasma glutathione peroxidase activity compared with sodium selenite [4]: higher; Glutathione peroxidase activities in kidney, liver, and muscle compared to sodium selenite [4]: higher activities; Relative bioavailability based on glutathione peroxidase activity, Plasma, day 14 ([4]; in vivo): 124; Relative bioavailability based on glutathione peroxidase activity, Plasma, day 28 ([4]; in vivo): 138; Relative bioavailability based on glutathione peroxidase activity, Heart ([4]; in vivo): 107; Relative bioavailability based on glutathione peroxidase activity, Kidney ([4]; in vivo): 100; Relative bioavailability based on glutathione peroxidase activity, Liver ([4]; in vivo): 161; Relative bioavailability based on glutathione peroxidase activity, Muscle ([4]; in vivo): 186; Solubility in water [2]: did not completely go into solution

Which results are given for `O=[Se](O)O` [Sodium Selenite, reference compound]?
Plasma selenium concentration, difference between selenium sources ([3]; lambs, day 28): no difference; Feed Intake ([5]; Finishing Phase (33 days)): 2.57 kg; Feed/Gain ([5]; Finishing Phase (33 days)): 2.71; Gain ([5]; Finishing Phase (33 days)): 0.95 kg/day; Feed Intake ([5]; Growing Phase (56 days)): 1.74 kg; Feed/Gain ([5]; Growing Phase (56 days)): 2.15; Gain ([5]; Growing Phase (56 days)): 0.81 kg/day; Feed Intake ([5]; Total): 2.05 kg; Feed/Gain ([5]; Total): 2.38; Gain ([5]; Total): 0.86 kg/day; Kidney selenium concentrations, sodium selenite versus zinc L-selenomethionine ([6]; pigs): similar; Glutathione Peroxidase Activity [7]: 14.0

Which “Stability of the water solution on storage” value [1] does the source give for `C[Se]CC[C@@H]1[NH][Zn][O]C1=O` [Zn L-Selenomethionine, Zinc L-Selenomethionine Hydrochloride] here?
The value was “stable on storage”.

And the “Concentration of zinc L-selenomethionine in the solution” value ([1]; after 30 days at ambient temperature averaging 18° C. and 50% relative humidity)?
The value was 18.89%.

What about the “Concentration of zinc L-selenomethionine in the solution” value ([1]; after 90 days at ambient temperature averaging 18° C. and 50% relative humidity) of the same compound?
The value was 18.78%.

What about the “Concentration of zinc L-selenomethionine in the solution” value ([1]; day of preparation, solution of Premix 5% Se in water) of the same compound?
The value was 18.95%.

And the “Change of concentration of zinc L-selenomethionine in the solution” value ([1]; thirty day storage at ambient temperature and humidity)?
Its value is “less than 0.5%”.

And the “Rumen degradation after ingestion” value [8]?
Its value is “resistant to rumen degradation”.

What about the “Heart and liver selenium concentrations compared with sodium selenite” value ([3]; in vivo) of the same compound?
Its value is “higher heart and liver selenium concentrations”.

What about the “Plasma selenium compared with sodium selenite” value ([3]; lambs, day 56) of the same compound?
The value was “higher plasma selenium”.

What about the “Relative bioavailability based on tissue selenium concentration, Heart” value ([3]; in vivo) of the same compound?
Its value is 158.

And the “Relative bioavailability based on tissue selenium concentration, Kidney” value ([3]; in vivo)?
The value was 74.

What about the “Relative bioavailability based on tissue selenium concentration, Liver” value ([3]; in vivo) of the same compound?
Its value is 160.

And the “Relative bioavailability based on tissue selenium concentration, Muscle” value ([3]; in vivo)?
Its value is 85.

And the “Plasma Selenium Concentration” value [9]?
Its value is 0.177 ppm.

What about the “Gain/feed ratio compared with sodium selenite” value [5] of the same compound?
The value was “higher”.

What about the “Feed Intake” value ([5]; Finishing Phase (33 days)) of the same compound?
The value was 2.22 kg.

What about the Feed/Gain ([5]; Finishing Phase (33 days)) of the same compound?
Its Feed/Gain is 2.31.

What about the Gain ([5]; Finishing Phase (33 days)) of the same compound?
The Gain was 0.96 kg/day.

What about the “Feed Intake” value ([5]; Growing Phase (56 days)) of the same compound?
Its value is 1.86 kg.

What about the Feed/Gain ([5]; Growing Phase (56 days)) of the same compound?
Its Feed/Gain is 2.16.

What about the Gain ([5]; Growing Phase (56 days)) of the same compound?
The Gain was 0.86 kg/day.

And the “Feed Intake” value ([5]; Total)?
Its value is 2.00 kg.

And the Feed/Gain ([5]; Total)?
The Feed/Gain was 2.22.

What about the Gain ([5]; Total) of the same compound?
Its Gain is 0.90 kg/day.

And the “Feed consumed compared with sodium selenite” value ([5]; finishing phase)?
Its value is “consumed less feed”.

And the “Kidney selenium concentrations, sodium selenite versus zinc L-selenomethionine” value ([6]; pig, in vivo)?
The value was “similar”.

And the “Selenium concentrations in liver, muscle and heart compared with sodium selenite” value ([6]; pig, in vivo)?
The value was “higher selenium concentrations”.

What about the “Bioavailability compared with sodium selenite and L-selenomethionine” value ([4]; in vivo) of the same compound?
Its value is “more bioavailabe”.

And the “Whole blood glutathione peroxidase activity, difference between selenium sources” value [4]?
Its value is “no difference”.

What about the “Plasma glutathione peroxidase activity compared with sodium selenite” value [4] of the same compound?
Its value is “higher”.

And the “Glutathione peroxidase activities in kidney, liver, and muscle compared to sodium selenite” value [4]?
The value was “higher activities”.

And the “Relative bioavailability based on glutathione peroxidase activity, Plasma, day 14” value ([4]; in vivo)?
The value was 145.

What about the “Relative bioavailability based on glutathione peroxidase activity, Plasma, day 28” value ([4]; in vivo) of the same compound?
Its value is 149.

What about the “Relative bioavailability based on glutathione peroxidase activity, Heart” value ([4]; in vivo) of the same compound?
Its value is 126.

And the “Relative bioavailability based on glutathione peroxidase activity, Kidney” value ([4]; in vivo)?
Its value is 128.

And the “Relative bioavailability based on glutathione peroxidase activity, Liver” value ([4]; in vivo)?
The value was 152.

What about the “Relative bioavailability based on glutathione peroxidase activity, Muscle” value ([4]; in vivo) of the same compound?
The value was 200.

What about the “Glutathione Peroxidase Activity” value [7] of the same compound?
The value was 14.9.
